{"source": "patent US8222404B2", "about": "“[1,2,4]Thiadiazin-3-yl acetic acid compound and methods of making the acetic acid compound” (Anadys Pharmaceuticals, Inc., priority 2008, dated 2012)", "data": [{"test_system": "HCV Huh-luc/neo-ET replicon cells", "assay": "Luciferase-Based HCV Replicon Assay (EC50 (1b))", "assay_type": "cell-based", "details": "Hepatitis C virus, 72 hours exposure, luciferase activity", "procedure,_shortened": "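EC50 (1b) derived from % inhibition of luciferase signal relative to untreated cells, background set by 100 nM BILN-2061 (protease inhibitor). Triplicate dose series added to replicon cells 24 h post-seeding; luminescence measured after 72 h compound exposure.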", "units": {"EC50": "nM"}, "values": [{"smiles": "CS(=O)(=O)NCc1csc2c1S(=O)(=O)N=C(C1=C(O)[C@@H]3[C@@H]4CC[C@@H](C4)[C@@H]3N(Cc3ccc(F)c(F)c3)C1=O)N2", "note": "[Example 41, N-{3-[(1S,2S,7R,8R)-3-(3,4-Difluoro-benzyl)-6-hydroxy-4-oxo-3-aza-tricyclo[6.2.1.0^2,7]undec-5-en-5-yl]-1,1-dioxo-1,4-dihydro-1λ^6-thieno[2,3-e][1,2,4]thiadiazin-7-ylmethyl}-methanesulfonamide]", "EC50": "5 to 20"}, {"smiles": "CS(=O)(=O)NCc1csc2c1S(=O)(=O)N=C(C1=C(O)[C@@H]3[C@@H]4CC[C@@H](C4)[C@@H]3N(Cc3ccc(F)cc3Cl)C1=O)N2", "note": "[Example 42, N-{3-[(1S,2S,7R,8R)-3-(2-Chloro-4-fluoro-benzyl)-6-hydroxy-4-oxo-3-aza-tricyclo[6.2.1.0^2,7]undec-5-en-5-yl]-1,1-dioxo-1,4-dihydro-1λ^6-thieno[2,3-e][1,2,4]thiadiazin-7-ylmethyl}-methanesulfonamide]", "EC50": "100 to 1000"}, {"smiles": "COc1cc(CN2C(=O)C(C3=NS(=O)(=O)c4c(CNS(C)(=O)=O)csc4N3)=C(O)[C@@H]3[C@@H]4CC[C@@H](C4)[C@@H]32)ccc1F", "note": "[Example 43, N-{3-[(1S,2S,7R,8R)-3-(4-Fluoro-3-methoxy-benzyl)-6-hydroxy-4-oxo-3-aza-tricyclo[6.2.1.0^2,7]undec-5-en-5-yl]-1,1-dioxo-1,4-dihydro-1λ^6-thieno[2,3-e][1,2,4]thiadiazin-7-ylmethyl}-methanesulfonamide]", "EC50": "20 to 100"}, {"smiles": "CS(=O)(=O)NCc1csc2c1S(=O)(=O)N=C(C1=C(O)[C@@H]3C4CCC(CC4)[C@@H]3N(Cc3ccc(F)c(Cl)c3)C1=O)N2", "note": "[Example 44, N-{3-[(2S,7R)-3-(3-Chloro-4-fluoro-benzyl)-6-hydroxy-4-oxo-3-aza-tricyclo[6.2.2.0^2,7]dodec-5-en-5-yl]-1,1-dioxo-1,4-dihydro-1λ^6-thieno[2,3-e][1,2,4]thiadiazin-7-ylmethyl}-methanesulfonamide]", "EC50": "≤ 5"}, {"smiles": "CS(=O)(=O)NCc1csc2c1S(=O)(=O)N=C(C1=C(O)[C@@H]3C4CCC(CC4)[C@@H]3N(Cc3ccccc3)C1=O)N2", "note": "[Example 48, N-[3-((2S,7R)-3-Benzyl-6-hydroxy-4-oxo-3-aza-tricyclo[6.2.2.0^2,7]dodec-5-en-5-yl)-1,1-dioxo-1,4-dihydro-1λ^6-thieno[2,3-e][1,2,4]thiadiazin-7-ylmethyl]-methanesulfonamide]", "EC50": "≤ 5"}, {"smiles": "CS(=O)(=O)NCc1csc2c1S(=O)(=O)N=C(C1=C(O)[C@@H]3[C@H]4CC[C@H](C4)[C@@H]3N(Cc3ccc(F)cc3F)C1=O)N2", "note": "[Example 49, N-{3-[(1R,2S,7R,8S)-3-(2,4-Difluoro-benzyl)-6-hydroxy-4-oxo-3-aza-tricyclo[6.2.1.0^2,7]undec-5-en-5-yl]-1,1-dioxo-1,4-dihydro-1λ^6-thieno[2,3-e][1,2,4]thiadiazin-7-ylmethyl}-methanesulfonamide]", "EC50": "20 to 100"}, {"smiles": "CS(=O)(=O)NCc1csc2c1S(=O)(=O)N=C(C1=C(O)[C@@H]3[C@H]4CC[C@H](C4)[C@@H]3N(Cc3ccccc3)C1=O)N2", "note": "[Example 50, N-[3-((1R,2S,7R,8S)-3-Benzyl-6-hydroxy-4-oxo-3-aza-tricyclo[6.2.1.0^2,7]undec-5-en-5-yl)-1,1-dioxo-1,4-dihydro-1λ^6-thieno[2,3-e][1,2,4]thiadiazin-7-ylmethyl]-methanesulfonamide]", "EC50": "≤ 5"}, {"smiles": "CS(=O)(=O)NCc1csc2c1S(=O)(=O)N=C(C1=C(O)[C@@H]3C4CCC(CC4)[C@@H]3N(Cc3ccc(F)cc3F)C1=O)N2", "note": "[Example 51, N-{3-[(2S,7R)-3-(2,4-Difluoro-benzyl)-6-hydroxy-4-oxo-3-aza-tricyclo[6.2.2.0^2,7]dodec-5-en-5-yl]-1,1-dioxo-1,4-dihydro-1λ^6-thieno[2,3-e][1,2,4]thiadiazin-7-ylmethyl}-methanesulfonamide]", "EC50": "20 to 100"}, {"smiles": "Cc1cc(CN2C(=O)C(C3=NS(=O)(=O)c4c(CNS(C)(=O)=O)csc4N3)=C(O)[C@@H]3C4CCC(CC4)[C@@H]32)ccc1F", "note": "[Example 52, N-{3-[(2S,7R)-3-(4-Fluoro-3-methyl-benzyl)-6-hydroxy-4-oxo-3-aza-tricyclo[6.2.2.0^2,7]dodec-5-en-5-yl]-1,1-dioxo-1,4-dihydro-1λ^6-thieno[2,3-e][1,2,4]thiadiazin-7-ylmethyl}-methanesulfonamide]", "EC50": "≤ 5"}, {"smiles": "Cc1cc(CN2C(=O)C(C3=NS(=O)(=O)c4c(CNS(C)(=O)=O)csc4N3)=C(O)[C@@H]3[C@H]4CC[C@H](C4)[C@@H]32)ccc1F", "note": "[Example 53, N-{3-[(1R,2S,7R,8S)-3-(4-Fluoro-3-methyl-benzyl)-6-hydroxy-4-oxo-3-aza-tricyclo[6.2.1.0^2,7]undec-5-en-5-yl]-1,1-dioxo-1,4-dihydro-1λ^6-thieno[2,3-e][1,2,4]thiadiazin-7-ylmethyl}-methanesulfonamide]", "EC50": "5 to 20"}, {"smiles": "CS(=O)(=O)NCc1csc2c1S(=O)(=O)N=C(C1=C(O)[C@@H]3[C@H]4CC[C@H](C4)[C@@H]3N(Cc3cc(F)c(F)c(F)c3)C1=O)N2", "note": "[Example 54, N-{3-[(1R,2S,7R,8S)-6-Hydroxy-4-oxo-3-(3,4,5-trifluoro-benzyl)-3-aza-tricyclo[6.2.1.0^2,7]undec-5-en-5-yl]-1,1-dioxo-1,4-dihydro-1λ^6-thieno[2,3-e][1,2,4]thiadiazin-7-ylmethyl}-methanesulfonamide]", "EC50": "5 to 20"}, {"smiles": "CS(=O)(=O)NCc1csc2c1S(=O)(=O)N=C(C1=C(O)[C@@H]3[C@H]4CC[C@H](C4)[C@@H]3N(Cc3ccsc3)C1=O)N2", "note": "[Example 55, N-[(1R,2S,7R,8S)-3-(6-Hydroxy-4-oxo-3-thiophen-3-ylmethyl-3-aza-tricyclo[6.2.1.0^2,7]undec-5-en-5-yl)-1,1-dioxo-1,4-dihydro-1λ^6-thieno[2,3-e][1,2,4]thiadiazin-7-ylmethyl]-methanesulfonamide]", "EC50": "≤ 5"}, {"smiles": "Cc1cc(CN2C(=O)C(C3=NS(=O)(=O)c4c(CNS(C)(=O)=O)csc4N3)=C(O)[C@@H]3[C@@H]4CC[C@@H](C4)[C@@H]32)ccc1F", "note": "[Example 56, N-{3-[(1S,2S,7R,8R)-3-(4-Fluoro-3-methyl-benzyl)-6-hydroxy-4-oxo-3-aza-tricyclo[6.2.1.0^2,7]undec-5-en-5-yl]-1,1-dioxo-1,4-dihydro-1λ^6-thieno[2,3-e][1,2,4]thiadiazin-7-ylmethyl}-methanesulfonamide]", "EC50": "20 to 100"}, {"smiles": "CS(=O)(=O)NCc1csc2c1S(=O)(=O)N=C(C1=C(O)[C@@H]3[C@@H]4CC[C@@H](C4)[C@@H]3N(Cc3cc(F)c(F)c(F)c3)C1=O)N2", "note": "[Example 57, N-{3-[(1S,2S,7R,8R)-6-Hydroxy-4-oxo-3-(3,4,5-trifluoro-benzyl)-3-aza-tricyclo[6.2.1.0^2,7]undec-5-en-5-yl]-1,1-dioxo-1,4-dihydro-1λ^6-thieno[2,3-e][1,2,4]thiadiazin-7-ylmethyl}-methanesulfonamide]", "EC50": "5 to 20"}, {"smiles": "CS(=O)(=O)NCc1csc2c1S(=O)(=O)N=C(C1=C(O)[C@@H]3[C@@H]4CC[C@@H](C4)[C@@H]3N(Cc3ccsc3)C1=O)N2", "note": "[Example 58, N-[3-((1S,2S,7R,8R)-6-Hydroxy-4-oxo-3-thiophen-3-ylmethyl-3-aza-tricyclo[6.2.1.0^2,7]undec-5-en-5-yl)-1,1-dioxo-1,4-dihydro-1λ^6-thieno[2,3-e][1,2,4]thiadiazin-7-ylmethyl]-methanesulfonamide]", "EC50": "5 to 20"}, {"smiles": "CC(C)(C)CCN1C(=O)C(C2=NS(=O)(=O)c3c(CNS(C)(=O)=O)csc3N2)=C(O)[C@@H]2[C@@H]3CC[C@@H](C3)[C@@H]21", "note": "[Example 59, N-{3-[(1S,2S,7R,8R)-3-(3,3-Dimethyl-butyl)-6-hydroxy-4-oxo-3-aza-tricyclo[6.2.1.0^2,7]undec-5-en-5-yl]-1,1-dioxo-1,4-dihydro-1λ^6-thieno[2,3-e][1,2,4]thiadiazin-7-ylmethyl}-methanesulfonamide]", "EC50": "20 to 100"}, {"smiles": "CS(=O)(=O)NCc1csc2c1S(=O)(=O)N=C(C1=C(O)[C@@H]3C4CCC(CC4)[C@@H]3N(Cc3ccsc3)C1=O)N2", "note": "[Example 60, N-[3-((2S,7R)-6-Hydroxy-4-oxo-3-thiophen-3-ylmethyl-3-aza-tricyclo[6.2.2.0^2,7]dodec-5-en-5-yl)-1,1-dioxo-1,4-dihydro-1λ^6-thieno[2,3-e][1,2,4]thiadiazin-7-ylmethyl]-methanesulfonamide]", "EC50": "≤ 5"}, {"smiles": "CC(C)(C)CCN1C(=O)C(C2=NS(=O)(=O)c3c(CNS(C)(=O)=O)csc3N2)=C(O)[C@@H]2[C@H]3CC[C@H](C3)[C@@H]21", "note": "[Example 67, N-{3-[(1R,2S,7R,8S)-3-(3,3-Dimethyl-butyl)-6-hydroxy-4-oxo-3-aza-tricyclo[6.2.1.0^2,7]undec-5-en-5-yl]-1,1-dioxo-1,4-dihydro-1λ^6-thieno[2,3-e][1,2,4]thiadiazin-7-ylmethyl}-methanesulfonamide]", "EC50": "5 to 20"}, {"smiles": "CC(C)CCN1C(=O)C(C2=NS(=O)(=O)c3c(CNS(C)(=O)=O)csc3N2)=C(O)[C@@H]2[C@H]3CC[C@H](C3)[C@@H]21", "note": "[Example 68, N-{3-[(1R,2S,7R,8S)-6-Hydroxy-3-(3-methyl-butyl)-4-oxo-3-aza-tricyclo[6.2.1.0^2,7]undec-5-en-5-yl]-1,1-dioxo-1,4-dihydro-1λ^6-thieno[2,3-e][1,2,4]thiadiazin-7-ylmethyl}-methanesulfonamide]", "EC50": "5 to 20"}, {"smiles": "CC(C)CCN1C(=O)C(C2=NS(=O)(=O)c3c(CNS(C)(=O)=O)csc3N2)=C(O)[C@@H]2[C@@H]3CC[C@@H](C3)[C@@H]21", "note": "[Example 69, N-{3-[(1S,2S,7R,8R)-6-Hydroxy-3-(3-methyl-butyl)-4-oxo-3-aza-tricyclo[6.2.1.0^2,7]undec-5-en-5-yl]-1,1-dioxo-1,4-dihydro-1λ^6-thieno[2,3-e][1,2,4]thiadiazin-7-ylmethyl}-methanesulfonamide]", "EC50": "20 to 100"}, {"smiles": "CS(=O)(=O)NCc1csc2c1S(=O)(=O)N=C(C1=C(O)[C@@H]3C4CCC(CC4)[C@@H]3N(Cc3cc(F)c(F)c(F)c3)C1=O)N2", "note": "[Example 70, N-{3-[(2S,7R)-6-Hydroxy-4-oxo-3-(3,4,5-trifluoro-benzyl)-3-aza-tricyclo[6.2.2.0^2,7]dodec-5-en-5-yl]-1,1-dioxo-1,4-dihydro-1λ^6-thieno[2,3-e][1,2,4]thiadiazin-7-ylmethyl}-methanesulfonamide]", "EC50": "≤ 5"}]}]}
